For eight molecules, GI50 and TGI results are on record in PubChem BioAssay (NCI).

Among the test systems are SF-268 CNS; RPMI-8226 leukemia; HOP-62 NSCLC; SK-MEL-2 melanoma; HCT-15 colon; A549 NSCLC; NCI-H460 lung; M14 melanoma; OVCAR-8 ovarian; NCI/ADR-RES ovarian.
Holding throughout (experiment): growth of human tumour cells (NCI), 48 h

SMILES strings stand for the structures.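 Each compound was tested at five concentrations against cells in 96-well plates for 48 hours. At the GI50, growth is halved. The concentration for full growth arrest is given as TGI.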

As for `NC(=NCCCOc1ccc(Cl)cc1)Nc1ccc(C(F)(F)F)cc1`, the GI50 in the assay with SF-268 CNS is 2.77 µM; in the assay on RPMI-8226 leukemia it was 1.75 µM; in the assay with HOP-62 NSCLC, 2.28 µM; in the assay on SK-MEL-2 melanoma, 1.87 µM; with HCT-15 colon, 1.72 µM; in the assay on A549 NSCLC it was 2.78 µM. The GI50 is 2 µM with NCI-H460 lung, 1.69 µM in the assay on M14 melanoma, 2.18 µM in the assay with OVCAR-8 ovarian and 2.35 µM with NCI/ADR-RES ovarian. Besides, the TGI turned out to be 15.9 µM in the assay on SF-268 CNS; 4.32 µM in the assay on RPMI-8226 leukemia; 6.43 µM in the assay with HOP-62 NSCLC; 3.88 µM in the assay on SK-MEL-2 melanoma; 4.15 µM in the assay with HCT-15 colon; 12.6 µM in the assay with A549 NSCLC. Besides, the TGI with NCI-H460 lung was 4.97 µM; with M14 melanoma, 3.46 µM; in the assay with OVCAR-8 ovarian, 6.05 µM; in the assay on NCI/ADR-RES ovarian it was 7.27 µM.
Turning to `C[As](C)SC1OC(CO)C(O)C1O` (configuration not stated), the GI50 in the assay on SF-268 CNS was 0.998 µM; in the assay on RPMI-8226 leukemia, 0.1 µM; in the assay with HOP-62 NSCLC it was 3.58 µM; in the assay with SK-MEL-2 melanoma it was 0.708 µM; in the assay with HCT-15 colon it was 0.238 µM; in the assay on A549 NSCLC, 2.25 µM. Further, the GI50 was 1.46 µM in the assay with NCI-H460 lung, 0.232 µM with M14 melanoma, 0.694 µM in the assay on OVCAR-8 ovarian and 0.825 µM in the assay with NCI/ADR-RES ovarian. The TGI in the assay with SF-268 CNS was 5.73 µM; in the assay with RPMI-8226 leukemia it was 0.342 µM; with HOP-62 NSCLC, 13.4 µM; with SK-MEL-2 melanoma, 2.92 µM; in the assay with HCT-15 colon, 1.12 µM; with A549 NSCLC, over 61 µM. The TGI is 11.7 µM in the assay on NCI-H460 lung, 0.767 µM in the assay on M14 melanoma, 3.15 µM in the assay on OVCAR-8 ovarian and 5.75 µM with NCI/ADR-RES ovarian.
Take `CCN1CCN(c2ccc(Nc3cc(N(C)C(=O)Nc4c(Cl)c(OC)cc(OC)c4Cl)ncn3)cc2)CC1`: the GI50 was 2.41 µM with SF-268 CNS; 1.76 µM in the assay on RPMI-8226 leukemia; 4.03 µM in the assay with HOP-62 NSCLC; 7.12 µM in the assay with SK-MEL-2 melanoma; 1.87 µM in the assay on HCT-15 colon; 3.13 µM in the assay with A549 NSCLC. Further, the GI50 with NCI-H460 lung was 1.87 µM; in the assay on M14 melanoma it was 1.45 µM; in the assay with OVCAR-8 ovarian it was 3.07 µM; with NCI/ADR-RES ovarian, 3.7 µM. For the same molecule, the TGI with SF-268 CNS was determined as 28 µM; in the assay with RPMI-8226 leukemia, 4.71 µM; in the assay with HOP-62 NSCLC, 15.5 µM; with SK-MEL-2 melanoma, 22.7 µM; with HCT-15 colon, 8.94 µM; in the assay on A549 NSCLC it was 12.1 µM. The TGI was 5.42 µM with NCI-H460 lung, 3.1 µM in the assay with M14 melanoma, 22.9 µM in the assay on OVCAR-8 ovarian and over 64.5 µM in the assay on NCI/ADR-RES ovarian.
With `CC1OC2CC(=O)OC2C2=C1C(=O)c1c(O)cccc1C2=O` (configuration not stated), the GI50 in the assay on SF-268 CNS is 0.163 µM; with RPMI-8226 leukemia, 0.0587 µM; in the assay on HOP-62 NSCLC it was 0.182 µM; in the assay on SK-MEL-2 melanoma it was 0.0885 µM; in the assay with HCT-15 colon, 0.0314 µM; in the assay with A549 NSCLC it was 0.831 µM. For the same molecule, the GI50 in the assay with NCI-H460 lung was 0.415 µM; in the assay with M14 melanoma, 0.0611 µM; in the assay on OVCAR-8 ovarian, 0.0501 µM; in the assay on NCI/ADR-RES ovarian, 0.0892 µM. Also, the TGI came to 0.436 µM in the assay on SF-268 CNS; 0.602 µM in the assay with RPMI-8226 leukemia; 0.366 µM in the assay on HOP-62 NSCLC; 0.272 µM with SK-MEL-2 melanoma; 0.15 µM with HCT-15 colon; 2.68 µM in the assay with A549 NSCLC. The TGI is 1.75 µM in the assay with NCI-H460 lung, 0.193 µM in the assay with M14 melanoma, 0.36 µM with OVCAR-8 ovarian and 0.646 µM in the assay on NCI/ADR-RES ovarian.
Regarding `COc1ccc(N(C)c2ncnc3occ(C)c23)cc1`, the GI50 was 0.0101 µM with SF-268 CNS; under 0.01 µM with RPMI-8226 leukemia; under 0.01 µM with SK-MEL-2 melanoma; under 0.01 µM in the assay on HCT-15 colon; under 0.01 µM with A549 NSCLC; under 0.01 µM in the assay with NCI-H460 lung. Besides, the GI50 in the assay on M14 melanoma, in the assay with OVCAR-8 ovarian and in the assay with NCI/ADR-RES ovarian was under 0.01 µM each time. Moreover, the TGI is over 62.3 µM in the assay with SF-268 CNS; under 0.01 µM with RPMI-8226 leukemia; over 100 µM in the assay with HOP-62 NSCLC; 58.7 µM with SK-MEL-2 melanoma; over 100 µM with A549 NSCLC; over 100 µM in the assay on M14 melanoma. Besides, the TGI with OVCAR-8 ovarian and with NCI/ADR-RES ovarian was over 100 µM throughout.
Take `C=C(F)C(=O)N1CCN(c2nc(OC[C@@H]3CCCN3C)nc3c2CCN(c2cccc4cccc(Cl)c24)C3)C[C@@H]1CC#N`: the GI50 in the assay with SF-268 CNS is 1.37 µM; in the assay on RPMI-8226 leukemia, 1.24 µM; in the assay on HOP-62 NSCLC, under 0.01 µM; in the assay with SK-MEL-2 melanoma it was 1.4 µM; in the assay on HCT-15 colon, 0.56 µM; in the assay on A549 NSCLC, 0.673 µM. Moreover, the GI50 in the assay on NCI-H460 lung is 1.05 µM; in the assay with M14 melanoma, 1.06 µM; with OVCAR-8 ovarian, 0.473 µM; in the assay with NCI/ADR-RES ovarian, 0.601 µM. For the same molecule, the TGI with SF-268 CNS is 3.37 µM; in the assay with RPMI-8226 leukemia, 3.45 µM; in the assay with HOP-62 NSCLC, 1.48 µM; in the assay with SK-MEL-2 melanoma, 2.8 µM; in the assay on HCT-15 colon, 2.06 µM; in the assay with A549 NSCLC, 2.57 µM. The TGI in the assay on NCI-H460 lung turned out to be 2.38 µM; with M14 melanoma it was 2.34 µM; in the assay on OVCAR-8 ovarian it was 1.79 µM; with NCI/ADR-RES ovarian it was 3.19 µM.
For the molecule `CNCCNc1c2c(c(NCCNC)c3c(CN(C)C)c[nH]c13)C(=O)c1ccccc1C2=O`, the GI50 in the assay with SF-268 CNS was 1.3 µM; in the assay with RPMI-8226 leukemia, 0.938 µM; in the assay on HOP-62 NSCLC it was 2.9 µM; in the assay on SK-MEL-2 melanoma it was 2.94 µM; in the assay on HCT-15 colon it was 5.7 µM; with A549 NSCLC, 3.42 µM. For the same molecule, the GI50 in the assay on NCI-H460 lung is 1.46 µM; in the assay with M14 melanoma, 5.58 µM; in the assay with OVCAR-8 ovarian, 3.28 µM; in the assay on NCI/ADR-RES ovarian, 12.7 µM. Also, the TGI with SF-268 CNS was found to be 9.21 µM; in the assay on RPMI-8226 leukemia it was 5.2 µM; in the assay with HOP-62 NSCLC it was 10.1 µM; in the assay on SK-MEL-2 melanoma it was 16.4 µM; with HCT-15 colon it was 20.5 µM; in the assay with A549 NSCLC, 11.2 µM. Moreover, the TGI came out at 11.2 µM with NCI-H460 lung, 15.5 µM in the assay with M14 melanoma, 13.6 µM with OVCAR-8 ovarian and 40.2 µM with NCI/ADR-RES ovarian.
As for `O=C(CCCn1ccnc1[N+](=O)[O-])NCCn1cncc1[N+](=O)[O-]`, the TGI in the assay on SF-268 CNS, in the assay with RPMI-8226 leukemia, in the assay on HOP-62 NSCLC, in the assay on SK-MEL-2 melanoma, in the assay on HCT-15 colon and in the assay on A549 NSCLC was over 100 µM throughout. Moreover, the TGI in the assay with NCI-H460 lung, in the assay with M14 melanoma, in the assay on OVCAR-8 ovarian and with NCI/ADR-RES ovarian was over 100 µM each time.
